≈ marks a conversion by molar mass, not a printed value.
Biological target: T1, α-amylase
T1 construct: gene AMY2
Experiment: DNS starch hydrolysis assay, absorbance at […] nm
Assay type: biochemical

| Compound | IC50 value |
| --- | --- |
| CCCN(CCC)S(=O)(=O)c1ccc(-c2nnc(SCCCN3C(=O)c4ccccc4C3=O)o2)cc1 [compound 1, 4–(5-(3–(1,3-Dioxoisoindolin-2-yl)propylthio)-1,3,4-oxadiazol-2-yl)-N,N-dipropylbenzenesulfonamide] | 92.23 ± 0.23 µg/mL (≈ 174 µM) |
| CCCN(CCC)S(=O)(=O)c1ccc(-c2nnc(SCCCCN3C(=O)c4ccccc4C3=O)o2)cc1 [compound 2, 4–(5-(4–(1,3-Dioxoisoindolin-2-yl)butylthio)-1,3,4-oxadiazol-2-yl)-N,N-dipropylbenzenesulfonamide] | 76.92 ± 0.19 µg/mL (≈ 142 µM) |

Reference: publication PMC9154803, “Synthesis, X-ray diffraction analysis, quantum chemical studies and α-amylase inhibition of probenecid derived S-alkylphthalimide-oxadiazole-benzenesulfonamide hybrids” (Journal of Enzyme Inhibition and Medicinal Chemistry, 2022)
